# Reference: patent publication US20240131356A1, “COMBINATION OF INTRACELLULAR AND EXTRACELLULAR PHOTOSENSITIZERS FOR TREATMENT OF BACTERIAL INFECTION” (priority 2021, published 2024)
# Where two headings read alike, the source gives them in different places.
# Test system: hrtAB promoter (HssRS activation; CgoX activation)
# Experiment: XylE colorimetric reporter assay (phrt.xylE), activation of HssRS / hrtAB expression
# Format: cell-based, Staphylococcus aureus strain Newman
# Settings: for Specifc Activity @ 30 μM: 30 μM compound, XylE activity normalized to protein; for Specifc Activity @ 30 μM / Specifc Activity (nMol/min*mg), data collected at 10 uM: 6 h subculture; for Specifc Activity (nMol/min*mg), data collected at 10 uM: footnote a: data collected at 10 uM; for XylE activity in comparison to '8882 at 10 μM: six-hour exposure (FIG. 2A); for XylE activity in comparison to '8882 at 30 μM: six-hour exposure (FIG. 2B); for EC50: Staphylococcus aureus, NEWMAN; for XylE activity (ability to activate HssRS) in comparison to '8882: dose not stated
# Description: To maximize the production of coproporphyrin III and thereby increase blue-light mediated killing of S. aureus, synthesized analogs of VU0038882 were tested. To determine the relative efficacy of each analog, a Newman strain of S. aureus, transformed with the phrt.xylE (11) reporter vector was used. This reporter allows for colorimetric assessment of intracellular heme production. To perform the assay, each individual analog was added to 3 mL of TSB+10 μg/mL chloramphenicol to reach a concentration of 30 μM, and then 700 μL of this newly made 30 μM solution was added to 1.3 mL of remaining TSB+10 μg/mL chloramphenicol media to create the 10 μM concentration. Either 10 μM or 30 μM concentrations of compounds in medium were then aliquoted into three 0.5 mL replicate tubes. Three separate 16- to 18-hour overnight subcultures from isolated colonies were back-diluted 1:100 into the tubes creating three biological replicates and were subcultured for 6 hours at 37° C. and 180 rpm. After incubation, the cells were pelleted at 16,400 g for 5 minutes and the supernatant aspirated before washing with 0.5 mL of 20 mM potassium phosphate wash buffer. After pelleting the cells again at 16,400 g for 5 minutes the wash buffer was aspirated, and the pellets were stored at −80° C. until further use.
# When the cells were ready to be lysed and data collected, samples were removed from the −80° C. freezer, allowed to thaw, and resuspended in 150 μL of lysis buffer (100 mM potassium phosphate pH=8.0, 10% v/v acetone, 20 μg/mL lysostaphin) before incubation in a 37° C. bead bath for 20 minutes and then cooled for 5 minutes on ice. The samples were then centrifuged at 16,400 g and 4° C. for 30 minutes to separate the pellet from the lysate, which was then placed into a 96-well microtiter plate and kept on ice. The lysate from each sample was pipetted into 20 μL aliquots on a round-bottom or flat-bottom 96-well plate on ice. The round bottom plate was labeled for bicinchoninic acid assay (BCA) protein content analysis, and 10 μL of BCA standards was added to extra wells on the plate. Protein quantification was performed using a Pierce BCA Protein Assay Kit as per the manufacturer's instructions. While the BCA plate was in the incubator, the flat-bottom plate was prepared by thawing 1 M catechol on ice and making 100 mM potassium phosphate (pH=8.0) assay buffer. After preparing a kinetic read at 375 nm for 10 minutes with a minimal interval between reads, the catechol was diluted 1:1,000 into the assay buffer and quickly dispensed into a sterile basin, then 200 μL of the solution was pipetted into each well using a multichannel pipette. All data were exported into Excel software (Microsoft) and analyzed for specific activity of each compound and activity relative to VU0038882 controls.
# After 219 analogs had been screened, the compounds with the best percent VU0038882 activity were tested again following the same protocol, but with twelve replicates per concentration with data expressed as averages ±the standard deviation (SD). Additionally, the top-performing compounds were tested using the XylE protocol with a concentration gradient to determine their half maximal effective concentration (EC50) values.
# Photosensitizer-conjugated antibodies expose bacteria to reactive oxygen species (ROS) externally, but this treatment can be paired with small molecule treatment to generate ROS internally via heme biosynthesis pathway intermediates. To discover new compounds capable of activating CgoX and/or displaying less toxicity to eukaryotic cells, a medicinal chemistry campaign was initatied based on systematic alternation of the '8882 structure. Each new analog was tested for the ability to activate HssRS using the previously described XylE colorimetric assay that employs a reporter construct in which the hrtAB promoter is fused to a xylE reporter gene. […]
structure (smiles),measurement,setting,value
"Cc1ccc(-c2cc(-c3ccc4ccccc4c3O)n[nH]2)o1 ['9624, 2-(5-(5-Methylfuran-2-yl)-1H-pyrazol-3-yl)naphthalen-1-ol]",Specifc Activity @ 30 μM,,1.152 ± 0.382 nmol/min/mg
"Cc1c(-c2ccccc2O)n[nH]c1-c1ccco1 [Compound 0394, 2-(5-(Furan-2-yl)-4-methyl-1H-pyrazol-3-yl)phenol]",Specifc Activity @ 30 μM,,0.0287 ± 0.0198 nmol/min/mg
"Oc1c(-c2cc(-c3cnco3)[nH]n2)ccc2ccccc12 [′0071, 2-(5-(Oxazol-5-yl)-1H-pyrazol-3-yl)naphthalen-1-ol]","Specifc Activity (nMol/min*mg), data collected at 10 uM",,1.152 ± 0.263^a nMol/min*mg
"CC(C)Nc1cc(-c2ccc3ccccc3c2O)n[nH]1 [′0457, 2-(5-(isopropylamino)-1H-pyrazol-3-yl)naphthalen-1-ol]",Specifc Activity @ 30 μM,,0.5082 ± 0.770 nmol/min/mg
"Oc1c(-c2n[nH]c(-c3ccco3)n2)ccc2ccccc12 [′0485, 2-(5-(Furan-2-yl)-1H-1,2,4-triazol-3-yl)naphthalen-1-ol]",Specifc Activity @ 30 μM,,1.697 ± 0.335 nmol/min/mg
"Oc1c(-c2nnc(-c3ccco3)o2)ccc2ccccc12 [′0527, 2-(5-(furan-2-yl)-1,3,4-oxadiazol-2-yl)naphthalen-1-ol]",Specifc Activity @ 30 μM,,0.2270 ± 0.0147 nmol/min/mg
"Oc1c(-c2n[nH]c3c2CCc2ccoc2-3)ccc2ccccc12 [′1790, 2-(4,5-Dihydro-2H-furo[3,2-g]indazol-3-yl)naphthalen-1-ol]",Specifc Activity @ 30 μM,,4.146 ± 2.397 nmol/min/mg
"Cc1nn(C)c(C)c1-c1cc(-c2ccc3ccccc3c2O)n[nH]1 [′2069, 2-(1′,3′,5′-trimethyl-1′H,2H-[3,4′-bipyrazol]-5-yl)naphthalen-1-ol]",XylE activity in comparison to '8882 at 10 μM,,weaker activity compared to '8882
same,Specifc Activity @ 30 μM,,10.46 ± 1.54 nmol/min/mg
same,XylE activity in comparison to '8882 at 30 μM,,equivalent
same,EC50,,28.5 µM
same,EC50,read-out: logEC50 (converted),28.5 µM
"Oc1cc2ccccc2cc1-c1cc(-c2ccco2)[nH]n1 [′3918, 3-(5-(Furan-2-yl)-1H-pyrazol-3-yl)naphthalen-2-ol]",Specifc Activity @ 30 μM,,0.2543 ± 0.127 nmol/min/mg
"Nc1ncccc1-c1cc(-c2ccco2)[nH]n1 [′3989, 3-(5-(Furan-2-yl)-1H-pyrazol-3-yl)pyridin-2-amine]",Specifc Activity @ 30 μM,,0.2491 ± 0.2546 nmol/min/mg
"Oc1ccc(F)cc1-c1cc(-c2ccco2)[nH]n1 [′4082, 4-Fluoro-2-(5-(furan-2-yl)-1H-pyrazol-3-yl)phenol]",Specifc Activity @ 30 μM,,5.884 ± 1.88 nmol/min/mg
"Oc1cc(F)ccc1-c1cc(-c2ccco2)[nH]n1 [′4083, 5-Fluoro-2-(5-(furan-2-yl)-1H-pyrazol-3-yl)phenol]",XylE activity in comparison to '8882 at 10 μM,,activity similar to '8882
same,Specifc Activity @ 30 μM,,28.76 ± 9.41 nmol/min/mg
same,XylE activity in comparison to '8882 at 30 μM,,activity similar to '8882
same,EC50,,20.9 µM
same,EC50,read-out: logEC50 (converted),20.9 µM
"Cn1ccc(-c2cc(-c3ccc4ccccc4c3O)n[nH]2)n1 [′6699, 2-(1-Methyl-1H,2′H-[3,3′-bipyrazol]-5′-yl)naphthalen-1-ol]",Specifc Activity @ 30 μM,,5.138 ± 4.82 nmol/min/mg
"Cn1ncc2cc(-c3cc(-c4ccc5ccccc5c4O)n[nH]3)ccc21 [′6700, 2-(5-(1-methyl-1H-indazol-5-yl)-1H-pyrazol-3-yl)naphthalen-1-ol]",Specifc Activity @ 30 μM,,24.26 ± 3.69 nmol/min/mg
same,EC50,,8.18 µM
same,EC50,read-out: logEC50 (converted),8.18 µM
same,XylE activity (ability to activate HssRS) in comparison to '8882,,roughly equivalent to '8882
"c1ccc(-c2cc(-c3ccco3)[nH]n2)nc1 [′7092, 2-(5-(Furan-2-yl)-1H-pyrazol-3-yl)pyridine]",Specifc Activity @ 30 μM,,0.2374 ± 0.1354 nmol/min/mg
"Oc1ncccc1-c1cc(-c2ccco2)[nH]n1 [′7268, 3-(5-(Furan-2-yl)-1H-pyrazol-3-yl)pyridin-2-ol]",Specifc Activity @ 30 μM,,0.4793 ± 1.2179 nmol/min/mg
"Cn1nccc1-c1cc(-c2ccc3ccccc3c2O)n[nH]1 [′8233, 2-(2′-Methyl-2H,2′H-[3,3′-bipyrazol]-5-yl)naphthalen-1-ol]",Specifc Activity @ 30 μM,,0.5053 ± 0.294 nmol/min/mg
"C#Cc1cc(-c2ccc3ccccc3c2O)n[nH]1 [′9128, 2-(5-Ethynyl-1H-pyrazol-3-yl)naphthalen-1-ol]","Specifc Activity (nMol/min*mg), data collected at 10 uM",,0.442 ± 0.089^a nMol/min*mg
"Oc1c(-c2cc(-c3cc4ccccc4s3)[nH]n2)ccc2ccccc12 [′9130, 2-(5-(Benzo[b]thiophen-2-yl)-1H-pyrazol-3-yl)naphthalen-1-ol]",Specifc Activity @ 30 μM,,1.012 ± 0.064 nmol/min/mg
Oc1c(-c2cc(-c3ccncc3)[nH]n2)ccc2ccccc12 [′9131],Specifc Activity @ 30 μM,,0.437 ± 0.26 nmol/min/mg
"Oc1c(-c2cc(-c3ccsc3)[nH]n2)ccc2ccccc12 [′9132, 2-(5-(thiophen-3-yl)-1H-pyrazol-3-yl)naphthalen-1-ol]",Specifc Activity @ 30 μM,,12.82 ± 1.12 nmol/min/mg
same,EC50,,26.2 µM
same,EC50,read-out: logEC50 (converted),26.2 µM
same,XylE activity (ability to activate HssRS) in comparison to '8882,,lost some activity compared with '8882
"Oc1c(-c2cc(-c3cc4ccccc4o3)[nH]n2)ccc2ccccc12 [′9134, 2-(5-(Benzofuran-2-yl)-1H-pyrazol-3-yl)naphthalen-1-ol]",Specifc Activity @ 30 μM,,0.130 ± 0.142 nmol/min/mg
"Oc1c(-c2cc(C3CCCO3)[nH]n2)ccc2ccccc12 (stereo not shown) [′9437, 2-(5-(tetrahydrofuran-2-yl)-1H-pyrazol-3-yl)naphthalen-1-ol]",Specifc Activity @ 30 μM,,0.088 ± 0.041 nmol/min/mg
"Cc1ccc(-c2cc(-c3ccc4ccccc4c3O)n[nH]2)s1 [′9625, 2-(5-(5-Methylthiophen-2-yl)-1H-pyrazol-3-yl)naphthalen-1-ol]",Specifc Activity @ 30 μM,,8.023 ± 1.065 nmol/min/mg
same,EC50,,13.1 µM
same,EC50,read-out: logEC50 (converted),13.1 µM
"Oc1c(-c2cc(-c3cccs3)[nH]n2)ccc2ccccc12 [′9626, 2-(5-(Thiophen-2-yl)-1H-pyrazol-3-yl)naphthalen-1-ol]",XylE activity in comparison to '8882 at 10 μM,,performed well
same,Specifc Activity @ 30 μM,,28.86 ± 2.66 nmol/min/mg
same,XylE activity in comparison to '8882 at 30 μM,,comparable to '8882
same,EC50,,19.9 µM
same,EC50,read-out: logEC50 (converted),19.9 µM
"Cc1csc(-c2cc(-c3ccc4ccccc4c3O)n[nH]2)c1 [′9627, 2-(5-(4-Methylthiophen-2-yl)-1H-pyrazol-3-yl)naphthalen-1-ol]",Specifc Activity @ 30 μM,,10.15 ± 3.65 nmol/min/mg
"Cc1cnccc1-c1cc(-c2ccc3ccccc3c2O)n[nH]1 [′9767, 2-(5-(3-Methylpyridin-4-yl)-1H-pyrazol-3-yl)naphthalen-1-ol]","Specifc Activity (nMol/min*mg), data collected at 10 uM",,1.393 ± 0.392^a nMol/min*mg
"C/C=C/c1cc(-c2ccc3ccccc3c2O)n[nH]1 [′9768, (E)-2-(5-(Prop-1-en-1-yl)-1H-pyrazol-3-yl)naphthalen-1-ol]",Specifc Activity @ 30 μM,,6.951 ± 0.983 nmol/min/mg
"Cc1sccc1-c1cc(-c2ccc3ccccc3c2O)n[nH]1 [′9769, 2-(5-(2-Methylthiophen-3-yl)-1H-pyrazol-3-yl)naphthalen-1-ol]",Specifc Activity @ 30 μM,,4.922 ± 1.261 nmol/min/mg
